Data reported in ChEMBL document CHEMBL5247615, “Discovery of 5-(3,4-dihydroxybenzylidene)-1,3-dimethylpyrimidine- 2,4,6(1H,3H,5H)-trione as a novel and effective cardioprotective agent via dual anti-inflammatory and anti-oxidative activities” (Eur J Med Chem, 2022).
Calls of active or inactive are those of the source. No cut-off for these calls is given here.

Tests used:
H9c2 [1] = experiment: Cardioprotective activity against hydrogen peroxide induced cell injury in rat H9c2 cells assessed as increase in cell viability at 5 uM measured after 24 hrs by MTT assay; type: functional
H9c2 [2] = experiment: Cardioprotective activity against hydrogen peroxide induced cell injury in rat H9c2 cells assessed as increase in cell viability at 5 to 20 uM measured after 24 hrs by MTT assay; type: functional, cell-based; conditions: dose 5-20 µM
H9c2 [3] = experiment: Cardioprotective activity against hydrogen peroxide induced cell injury in rat H9c2 cells at 40 uM pretreated for 24 hrs followed by treatment with hydrogen peroxide for 2 hrs by MTT assay; type: functional, cell-based; conditions: time 26.0 hrs
H9c2 [4] = experiment: Cytotoxicity against rat H9c2 cells assessed as reduction in cell viability upto 100 uM measured after 24 hrs by MTT assay relative to control; type: toxicity, cell-based; conditions: h9c2, 24 h
Rattus norvegicus [5] = experiment: Antiinflammatory activity in myocardial ischemia/reperfusion induced Sprague-Dawley rat injury model assessed as decrease in IL-1beta protein expression in heart at 10 mg/kg, ip administered once a day for 2 weeks by Western blotting analysis; type: functional, organism-based
H9c2 [6] = experiment: Antioxidant activity in hydrogen peroxide induced rat H9c2 cells assessed as increase in SOD expression pretreated with compound for 24 hrs followed by treatment with hydrogen peroxide for 2 hrs; type: functional, cell-based; conditions: dose 5-20 µM, time 26.0 hrs
Rattus norvegicus [7] = experiment: Antiinflammatory activity in myocardial ischemia/reperfusion induced ip dosed Sprague-Dawley rat injury model assessed as decrease in NLRP3 protein expression in heart administered once a day for 2 weeks by Western blotting analysis; type: functional, organism-based; conditions: dose 5-20 mg/kg
Rattus norvegicus [8] = experiment: Cardioprotective activity in myocardial ischemia/reperfusion induced Sprague-Dawley rat injury model assessed as reduction in heart cardiac infarct size at 20 mg/kg, ip administered once a day for 2 weeks measured by Evans blue staining analysis (reference value: 46.8%); type: functional; design: scale not given: the % may be the effect or the level left
H9c2 [9] = experiment: Cardioprotective activity against hydrogen peroxide induced cell injury in rat H9c2 cells assessed as reversal of abnormal cell morphology pretreated with compound for 24 hrs followed by treatment with hydrogen peroxide for 2 hrs; type: functional, cell-based; conditions: dose 5-20 µM, time 26.0 hrs
H9c2 [10] = experiment: Cardioprotective activity against hydrogen peroxide induced cell injury in rat H9c2 cells assessed as reduction in loss of cell membrane integrity by measuring LDH level at 10 uM pretreated with compound for 24 hrs followed by treatment with hydrogen peroxide for 2 hrs relative to control; type: functional; design: scale not given: the % may be the effect or the level left
H9c2 [11] = experiment: Antiinflammatory activity in hydrogen peroxide induced rat H9c2 cells assessed as reversal of increase in IL-18 mRNA expression pretreated with compound for 24 hrs followed by treatment with hydrogen peroxide for 2 hrs; type: functional, cell-based; conditions: dose 5-20 µM, time 26.0 hrs
H9c2 [12] = experiment: Antioxidant activity in hydrogen peroxide induced rat H9c2 cells assessed as increase in HO-1 expression pretreated with compound for 24 hrs followed by treatment with hydrogen peroxide for 2 hrs; type: functional, cell-based; conditions: dose 5-20 µM, time 26.0 hrs
H9c2 [13] = experiment: Antiinflammatory activity in hydrogen peroxide induced rat H9c2 cells assessed as reversal of increase in NLRP-3 mRNA expression pretreated with compound for 24 hrs followed by treatment with hydrogen peroxide for 2 hrs; type: functional, cell-based; conditions: dose 5-20 µM, time 26.0 hrs
H9c2 [14] = experiment: Inhibition of autophagy in hydrogen peroxide induced rat H9c2 cells assessed as down regulation of […] mRNA level at 5 to 20 uM pretreated with compound for 24 hrs followed by treatment with hydrogen peroxide for 2 hrs; type: functional, cell-based; conditions: dose 5-20 µM, time 26.0 hrs
H9c2 [15] = experiment: Cardioprotective activity against hydrogen peroxide induced cell injury in rat H9c2 cells assessed as reduction in loss of cell membrane integrity by measuring LDH level at 20 uM pretreated with compound for 24 hrs followed by treatment with hydrogen peroxide for 2 hrs relative to control; type: functional; design: scale not given: the % may be the effect or the level left
H9c2 [16] = experiment: Cardioprotective activity against hydrogen peroxide induced cell injury in rat H9c2 cells at 5 to 20 uM pretreated with compound for 24 hrs followed by hydrogen peroxide addition for 2 hrs by MTT assay; type: functional, cell-based; conditions: dose 5-20 µM, time 26.0 hrs
Rattus norvegicus [17] = experiment: Antiinflammatory activity in myocardial ischemia/reperfusion induced ip dosed Sprague-Dawley rat injury model assessed as decrease in IL-1beta protein expression in heart administered once a day for 2 weeks by Western blotting analysis; type: functional, organism-based; conditions: dose 5-20 mg/kg
H9c2 [18] = experiment: Inhibition of autophagy in hydrogen peroxide induced rat H9c2 cells assessed as down regulation of p62 mRNA level at 5 to 20 uM pretreated with compound for 24 hrs followed by treatment with hydrogen peroxide for 2 hrs; type: functional, cell-based; conditions: dose 5-20 µM, time 26.0 hrs
Rattus norvegicus [19] = experiment: Antiinflammatory activity in myocardial ischemia/reperfusion induced ip dosed Sprague-Dawley rat injury model assessed as decrease in MDA level administered once a day for 2 weeks by Western blotting analysis; type: functional, organism-based; conditions: dose 5-20 mg/kg
H9c2 [20] = experiment: Antiinflammatory activity in hydrogen peroxide induced rat H9c2 cells assessed as reversal of increase in IL-1beta mRNA expression pretreated with compound for 24 hrs followed by treatment with hydrogen peroxide for 2 hrs; type: functional, cell-based; conditions: dose 5-20 µM, time 26.0 hrs
Rattus norvegicus [21] = experiment: Cardioprotective activity in myocardial ischemia/reperfusion induced ip dosed Sprague-Dawley rat injury model assessed as increase in heart LDH level administered once a day for 2 weeks; type: functional, organism-based; conditions: dose 5-20 mg/kg
Rattus norvegicus [22] = experiment: Antiinflammatory activity in myocardial ischemia/reperfusion induced ip dosed Sprague-Dawley rat injury model assessed as increase in CAT activity administered once a day for 2 weeks by Western blotting analysis; type: functional, organism-based; conditions: dose 5-20 mg/kg
Rattus norvegicus [23] = experiment: Cardioprotective activity in myocardial ischemia/reperfusion induced Sprague-Dawley rat injury model assessed as reduction in cardiac infarct size at 10 mg/kg, ip administered once a day for 2 weeks measured by Evans blue staining analysis (reference value: 46.8%); type: functional, Heart; design: scale not given: the % may be the effect or the level left
H9c2 [24] = experiment: Cardioprotective activity against hydrogen peroxide induced cell injury in rat H9c2 cells assessed as reduction in loss of cell membrane integrity by measuring LDH level at 5 uM pretreated with compound for 24 hrs followed by treatment with hydrogen peroxide for 2 hrs relative to control; type: functional; design: scale not given: the % may be the effect or the level left
H9c2 [25] = experiment: Antioxidant activity in hydrogen peroxide induced rat H9c2 cells assessed as increase in Nrf2 expression pretreated with compound for 24 hrs followed by treatment with hydrogen peroxide for 2 hrs; type: functional, cell-based; conditions: dose 5-20 µM, time 26.0 hrs
Rattus norvegicus [26] = experiment: Cardioprotective activity in myocardial ischemia/reperfusion induced ip dosed Sprague-Dawley rat injury model assessed as increase in heart AST level administered once a day for 2 weeks; type: functional, organism-based; conditions: dose 5-20 mg/kg
Rattus norvegicus [27] = experiment: Antioxidant activity in myocardial ischemia/reperfusion induced Sprague-Dawley rat injury model assessed as […] Nrf2 expression administered at 10 mg/kg, ip once a day for 2 weeks by Western blotting analysis; type: functional, organism-based
Rattus norvegicus [28] = experiment: Cardioprotective activity in myocardial ischemia/reperfusion induced Sprague-Dawley rat injury model assessed as decrease in ST-segment elevation at 5 to 20 mg/kg, ip administered once a day for 2 weeks measured by electrocardiogram; type: functional, organism-based; conditions: dose 5-20 mg/kg

CN1C(=O)C(=Cc2ccccc2O)C(=O)N(C)C1=O
Activity (H9c2 [1]): 40.3% | Activity (H9c2 [2]): Active

O=c1cc(-c2ccc(O)c(O)c2)oc2cc(O)cc(O)c12
Activity (H9c2 [3]): Active

CN1C(=O)C(=Cc2ccc(O)c(O)c2)C(=O)N(C)C1=O
Activity (H9c2 [4]): Non-Toxic | Activity (Rattus norvegicus [5]): Active | Activity (H9c2 [6]): Dose-Dependent Effect | Activity (Rattus norvegicus [7]): Active | Activity (Rattus norvegicus [8]): 22.3% | Activity (H9c2 [9]): Dose-Dependent Effect | Activity (H9c2 [10]): 35.6% | Activity (H9c2 [11]): Dose-Dependent Effect | Activity (H9c2 [12]): Dose-Dependent Effect | Activity (H9c2 [13]): Dose-Dependent Effect | inhibition (H9c2 [14]): Active | Activity (H9c2 [15]): 60.7% | Activity (H9c2 [16]): Active | Activity (Rattus norvegicus [17]): Active | Activity (H9c2 [1]): 77.5% | inhibition (H9c2 [18]): Active | Activity (Rattus norvegicus [19]): Active | Activity (H9c2 [20]): Dose-Dependent Effect | Activity (Rattus norvegicus [21]): Dose-Dependent Effect | Activity (H9c2 [2]): Active | Activity (Rattus norvegicus [22]): Active | Activity (Rattus norvegicus [23]): 32.3% | Activity (H9c2 [24]): 15.3% | Activity (H9c2 [25]): Dose-Dependent Effect | Activity (Rattus norvegicus [26]): Dose-Dependent Effect | Activity (Rattus norvegicus [27]): inactive | Activity (Rattus norvegicus [28]): Active

Cc1ccc(O)c(C=C2C(=O)N(C)C(=O)N(C)C2=O)c1
Activity (H9c2 [16]): Active

COCCc1ccc(OCC(O)CNC(C)C)cc1 (stereo not drawn)
Activity (H9c2 [3]): Active

CN1C(=O)C(=Cc2cccc(O)c2O)C(=O)N(C)C1=O
Activity (H9c2 [16]): Active
